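Grown in 96-well plates, cells were treated for 48 hours with each compound at five concentrations. Insufficient inhibition: endpoint recorded as highest concentration tested. The concentration for full growth arrest is given as TGI.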

The test system of the first experiment is SW-620 colon. The experiment can be described thus: inhibition of tumour cell growth, NCI panel, 48 h.
As for `O=C1c2cccc3cccc(c23)C(=O)N1CCCNCCCNCCCCNCCCNCCCN1C(=O)c2cccc3cccc(c23)C1=O`, the TGI turned out to be 14.9 µM.

In turn, `Nc1nc(Cl)c(N)c(NCC2(CO)CCCC2)n1` came in with a TGI greater than 100 µM.

For the molecule `CN(C)c1ccc(/C=N\NC(=O)Nc2cccc3ccccc23)cc1`, the TGI is greater than 100 µM.

Turning to `CC(=O)N(CCc1ccccc1)C(C#N)c1ccccc1` (configuration not stated), the TGI is greater than 100 µM.

`O=C(/N=C/c1c(O)c2ccccc2oc1=O)Oc1ccccc1` showed a TGI greater than 100 µM.

The molecule `O=c1cc(CO)oc(C(O)c2ccccc2)c1O` (configuration not stated) came in with a TGI greater than 100 µM.

The test system of the next experiment is HCC-2998 colon. The experiment can be described thus: inhibition of tumour cell growth, NCI panel, 48 h.
`O=C1c2cccc3cccc(c23)C(=O)N1CCCNCCCNCCCCNCCCNCCCN1C(=O)c2cccc3cccc(c23)C1=O`: the TGI worked out at 16.8 µM.

Take `Nc1nc(Cl)c(N)c(NCC2(CO)CCCC2)n1`: the TGI is greater than 100 µM.

Turning to `CN(C)c1ccc(/C=N\NC(=O)Nc2cccc3ccccc23)cc1`, the TGI was greater than 100 µM.

Turning to `CC(=O)N(CCc1ccccc1)C(C#N)c1ccccc1` (configuration not stated), the TGI is greater than 100 µM.

As for `O=C(/N=C/c1c(O)c2ccccc2oc1=O)Oc1ccccc1`, the TGI is greater than 100 µM.

On to `O=c1cc(CO)oc(C(O)c2ccccc2)c1O` (configuration not stated), for which the TGI was greater than 100 µM.

A further experiment deals with SNB-19 CNS. Kind of experiment: inhibition of tumour cell growth, NCI panel, 48 h.
Consider `O=C1c2cccc3cccc(c23)C(=O)N1CCCNCCCNCCCCNCCCNCCCN1C(=O)c2cccc3cccc(c23)C1=O`, for which the TGI was found to be 15.9 µM.

Molecule `Nc1nc(Cl)c(N)c(NCC2(CO)CCCC2)n1` gave a TGI greater than 100 µM.

On to `CN(C)c1ccc(/C=N\NC(=O)Nc2cccc3ccccc23)cc1`, for which the TGI came to 7.5 µM.

Consider `CC(=O)N(CCc1ccccc1)C(C#N)c1ccccc1` (configuration not stated), for which the TGI is greater than 100 µM.

`O=C(/N=C/c1c(O)c2ccccc2oc1=O)Oc1ccccc1` registered a TGI greater than 100 µM.

`O=c1cc(CO)oc(C(O)c2ccccc2)c1O` (configuration not stated) yielded a TGI greater than 100 µM.

For a further experiment, the system named is NCI-H23 lung. The experiment can be described thus: inhibition of tumour cell growth, NCI panel, 48 h.
For the molecule `O=C1c2cccc3cccc(c23)C(=O)N1CCCNCCCNCCCCNCCCNCCCN1C(=O)c2cccc3cccc(c23)C1=O`, the TGI worked out at 16 µM.

`CN(C)c1ccc(/C=N\NC(=O)Nc2cccc3ccccc23)cc1` had a TGI of 76 µM.

Molecule `CC(=O)N(CCc1ccccc1)C(C#N)c1ccccc1` (configuration not stated) came in with a TGI greater than 100 µM.

In turn, `O=C(/N=C/c1c(O)c2ccccc2oc1=O)Oc1ccccc1` returned a TGI of 68.5 µM.

On to `O=c1cc(CO)oc(C(O)c2ccccc2)c1O` (configuration not stated), for which the TGI is greater than 100 µM.

For the next experiment, the system named is PC-3 prostate. The experiment can be described thus: inhibition of tumour cell growth, NCI panel, 48 h.
For `O=C1c2cccc3cccc(c23)C(=O)N1CCCNCCCNCCCCNCCCNCCCN1C(=O)c2cccc3cccc(c23)C1=O`, the TGI was 13.4 µM.

`Nc1nc(Cl)c(N)c(NCC2(CO)CCCC2)n1` showed a TGI greater than 100 µM.

With `CN(C)c1ccc(/C=N\NC(=O)Nc2cccc3ccccc23)cc1`, the TGI worked out at 35.5 µM.

Turning to `CC(=O)N(CCc1ccccc1)C(C#N)c1ccccc1` (configuration not stated), the TGI is greater than 100 µM.

`O=C(/N=C/c1c(O)c2ccccc2oc1=O)Oc1ccccc1` registered a TGI greater than 100 µM.

`O=c1cc(CO)oc(C(O)c2ccccc2)c1O` (configuration not stated) registered a TGI greater than 100 µM.

A further experiment relates to MOLT-4 leukemia. The experiment can be described thus: inhibition of tumour cell growth, NCI panel, 48 h.
On to `O=C1c2cccc3cccc(c23)C(=O)N1CCCNCCCNCCCCNCCCNCCCN1C(=O)c2cccc3cccc(c23)C1=O`, for which the TGI stood at 2.84 µM.

`Nc1nc(Cl)c(N)c(NCC2(CO)CCCC2)n1` registered a TGI greater than 100 µM.

`CN(C)c1ccc(/C=N\NC(=O)Nc2cccc3ccccc23)cc1` registered a TGI greater than 100 µM.

On to `CC(=O)N(CCc1ccccc1)C(C#N)c1ccccc1` (configuration not stated), for which the TGI is greater than 100 µM.

On to `O=C(/N=C/c1c(O)c2ccccc2oc1=O)Oc1ccccc1`, for which the TGI is 96.4 µM.

As for `O=c1cc(CO)oc(C(O)c2ccccc2)c1O` (configuration not stated), the TGI was greater than 100 µM.

A further experiment relates to RXF 393 renal. Kind of experiment: inhibition of tumour cell growth, NCI panel, 48 h.
For `O=C1c2cccc3cccc(c23)C(=O)N1CCCNCCCNCCCCNCCCNCCCN1C(=O)c2cccc3cccc(c23)C1=O`, the TGI was found to be 19.1 µM.

Molecule `Nc1nc(Cl)c(N)c(NCC2(CO)CCCC2)n1` had a TGI greater than 100 µM.

`CN(C)c1ccc(/C=N\NC(=O)Nc2cccc3ccccc23)cc1` had a TGI greater than 100 µM.

As for `CC(=O)N(CCc1ccccc1)C(C#N)c1ccccc1` (configuration not stated), the TGI was greater than 100 µM.

Take `O=C(/N=C/c1c(O)c2ccccc2oc1=O)Oc1ccccc1`: the TGI was determined as 31.1 µM.

With `O=c1cc(CO)oc(C(O)c2ccccc2)c1O` (configuration not stated), the TGI is greater than 100 µM.

The subject of another experiment is SNB-75 CNS. The experiment can be described thus: inhibition of tumour cell growth, NCI panel, 48 h.
`O=C1c2cccc3cccc(c23)C(=O)N1CCCNCCCNCCCCNCCCNCCCN1C(=O)c2cccc3cccc(c23)C1=O` displayed a TGI of 12.5 µM.

In turn, `Nc1nc(Cl)c(N)c(NCC2(CO)CCCC2)n1` came in with a TGI greater than 100 µM.

`CN(C)c1ccc(/C=N\NC(=O)Nc2cccc3ccccc23)cc1` came in with a TGI of 32.3 µM.

In turn, `CC(=O)N(CCc1ccccc1)C(C#N)c1ccccc1` (configuration not stated) had a TGI greater than 100 µM.

`O=C(/N=C/c1c(O)c2ccccc2oc1=O)Oc1ccccc1` yielded a TGI of 68.4 µM.

In the case of `O=c1cc(CO)oc(C(O)c2ccccc2)c1O` (configuration not stated), the TGI is greater than 100 µM.

The test system of the next experiment is CAKI-1 renal. Kind of experiment: inhibition of tumour cell growth, NCI panel, 48 h.
Regarding `O=C1c2cccc3cccc(c23)C(=O)N1CCCNCCCNCCCCNCCCNCCCN1C(=O)c2cccc3cccc(c23)C1=O`, the TGI amounted to 29.6 µM.

For the molecule `Nc1nc(Cl)c(N)c(NCC2(CO)CCCC2)n1`, the TGI is greater than 100 µM.

Consider `CN(C)c1ccc(/C=N\NC(=O)Nc2cccc3ccccc23)cc1`, for which the TGI came to 27.9 µM.

In the case of `CC(=O)N(CCc1ccccc1)C(C#N)c1ccccc1` (configuration not stated), the TGI was greater than 100 µM.

For `O=C(/N=C/c1c(O)c2ccccc2oc1=O)Oc1ccccc1`, the TGI was 94.6 µM.

`O=c1cc(CO)oc(C(O)c2ccccc2)c1O` (configuration not stated) showed a TGI greater than 100 µM.

The test system of the next experiment is KM12 colon. The experiment can be described thus: inhibition of tumour cell growth, NCI panel, 48 h.
`O=C1c2cccc3cccc(c23)C(=O)N1CCCNCCCNCCCCNCCCNCCCN1C(=O)c2cccc3cccc(c23)C1=O` registered a TGI of 13.9 µM.

The molecule `Nc1nc(Cl)c(N)c(NCC2(CO)CCCC2)n1` returned a TGI greater than 100 µM.

Take `CN(C)c1ccc(/C=N\NC(=O)Nc2cccc3ccccc23)cc1`: the TGI is greater than 100 µM.

The molecule `CC(=O)N(CCc1ccccc1)C(C#N)c1ccccc1` (configuration not stated) came in with a TGI greater than 100 µM.
